Reference: patent US9101620B2, “Polymorph of 3-(substituteddihydroisoindolinone-2-yl)-2,6-dioxopiperidine, and pharmaceutical compositions thereof” (Nanjing Cavendish Bio-Engineering Technology Co., Ltd., priority 2009, dated 2015)
Entries after “also recorded” stand apart in the source; their conditions may differ.

How the values were obtained:
Assay type in all cases: physicochemical
[1] = Solubility test according to Chinese Pharmacopoeia Edition 2005; details: for Dissolving status: within 30 minutes
Protocol: Test was performed according to the Examples of Chinese Pharmacopoeia Edition 2005. Method: a definite quantity of the Polymorph I of 3-(4-amino-1-oxo-1,3-dihydro-2H-isoindole-2-yl)-piperidine-2,6-dione (hemihydrate) measured accurately was added into a certain quantity of solvent slowly, while the mixture was shaken strongly for 30 seconds every 5 minutes and the dissolving status within 30 minutes was observed. Results were listed in Tab. 1.
Test was performed according to the Examples of Chinese Pharmacopoeia Edition 2005. Method: a definite quantity of the (acetonitrile) solvated Polymorph II of 3-(4-amino-1-oxo-1,3-dihydro-2H-isoindole-2-yl)-piperidine-2,6-dione measured accurately was added into a certain quantity of solvent slowly, while the mixture was shaken strongly for 30 seconds every 5 minutes and the dissolving status within 30 minutes was observed. Results were listed in Tab. 61.
Test was performed according to the Examples of Chinese Pharmacopoeia Edition 2005. Method: a definite quantity of the (acetone) solvated polymorph III of 3-(4-amino-1-oxo-1,3-dihydro-2H-isoindole-2-yl)-piperidine-2,6-dione measured accurately was added into a certain quantity of solvent slowly while the mixture was shaken strongly for 30 seconds every 5 minutes and the dissolving status within 30 minutes was observed. Results were listed in Tab. 11.

[2] = High humidity test (room temperature, 75±5% relative humidity); details: for Appearance / Content / Weight gain of moisture absorption: room temperature, 75±5% relative humidity
Protocol: (§1) The raw material of Polymorph 1 of 3-(4-amino-1-oxo-1,3-dihydro-2H-isoindole-2-yl)-piperidine-2,6-dione (hemihydrate) was distributed homogeneously in open petri dish with thickness of the raw material not more than 5 mm and put into thermostatic and humidostatic incubator at room temperature (about 25° C.) and 75±5% relative humidity. Sample was tested at the 5th and 10th day respectively and the results were contrasted with that of the Day 0. Results were listed in Tab. 4. After high humidity test of 75±5% relative humidity for 10 days, the X-ray powder diffraction pattern was shown in FIG. 9; DSC diagram was in FIG. 10-1; TGA diagram was in FIG. 10-2.
as §1, with “Polymorph II” for “Polymorph 1”, “3-(4-amino-1-oxo-1,3-dihydro-2H-isoindole-2-yl)-piperidine-2,6-dione” for “3-(4-amino-1-oxo-1,3-dihydro-2H-isoindole-2-yl)-piperidine-2,6-dione (hemihydrate)”, “Tab. 9.” for “Tab. 4.”, “FIG. 20;” for “FIG. 9;”, “FIG. 21-1;” for “FIG. 10-1;”, “FIG. 21-2.” for “FIG. 10-2.”
as §1, with “Polymorph III” for “Polymorph 1”, “3-(4-amino-1-oxo-1,3-dihydro-2H-isoindole-2-yl)-piperidine-2,6-dione” for “3-(4-amino-1-oxo-1,3-dihydro-2H-isoindole-2-yl)-piperidine-2,6-dione (hemihydrate)”, “Tab. 14.” for “Tab. 4.”, “FIG. 31;” for “FIG. 9;”, “FIG. 32-1;” for “FIG. 10-1;”, “FIG. 32-2.” for “FIG. 10-2.”

[3] = Observation test of long-term sample storage (crystal transformation); details: long-term sample storage in high humidity; DSC scanning

With `Nc1cccc2c1CN(C1CCC(=O)NC1=O)C2=O` (single isomer, unassigned) [Polymorph II, 3-(4-amino-1-oxo-1,3-dihydro-2H-isoindole-2-yl)-piperidine-2,6-dione] the “Conclusion (solubility)” value ([1]; 0.1 mol/L HCl solution) was “sparingly soluble”, the Dissolving status ([1]; 0.1 mol/L HCl solution) was “fully” and the “Conclusion (solubility)” value ([1]; 0.1 mol/L NaOH solution) was “slightly soluble”. The Dissolving status ([1]; 0.1 mol/L NaOH solution) was “fully”, the “Conclusion (solubility)” value ([1]; DMF (N,N-dimethylformamide)) was “freely soluble” and the Dissolving status ([1]; DMF) was “fully”. The “Conclusion (solubility)” value ([1]; DMSO (dimethylsulfoxide)) was “freely soluble”, the Dissolving status ([1]; DMSO) was “fully” and the “Conclusion (solubility)” value ([1]; acetic acid) was “sparingly soluble”. The Dissolving status ([1]; acetic acid) was “fully”, the “Conclusion (solubility)” value ([1]; acetone) was “slightly soluble” and the Dissolving status ([1]; acetone) was “fully”. The “Conclusion (solubility)” value ([1]; acetonitrile) was “slightly soluble”, the Dissolving status ([1]; acetonitrile) was “fully” and the “Conclusion (solubility)” value ([1]; ethanol) was “very slightly soluble”. The Dissolving status ([1]; ethanol) was “fully”, the “Conclusion (solubility)” value ([1]; ethyl acetate) was “very slightly soluble” and the Dissolving status ([1]; ethyl acetate) was “fully”. The “Conclusion (solubility)” value ([1]; methanol) was “very slightly soluble”, the Dissolving status ([1]; methanol) was “fully” and the “Conclusion (solubility)” value ([1]; water) was “nearly insoluble; also recorded: practically”. The Dissolving status ([1]; water) was “cannot fully”, the “Change of appearance and content (in words)” value ([2]; high humidity test, summary) was “few obvious change” and the “Moisture absorption (in words)” value ([2]; high humidity test, summary) was “lower moisture absorption”. The Appearance ([2]; 0 days) was “off-white powder”, the Content ([2]; 0 days) was 99.89% and the Appearance ([2]; 5 days) was “off-white powder”. For the same compound, the Content ([2]; 5 days) was 99.87%, the “Weight gain of moisture absorption” value ([2]; 5 days) was 1.33% and the Appearance ([2]; 10 days) was “off-white powder”. The Content ([2]; 10 days) was 99.87%, the “Weight gain of moisture absorption” value ([2]; 10 days) was 2.15% and the Crystal transformation [3] was “a small amount of Polymorph II had transformed to Polymorph I”.
